Earlier results on one compound are cited in patent publication US20050272031A1, “Viral variants and uses therefor” (MELBOURNE HEALTH, priority 2000, published 2005).

This data set deals with HBV.

Consider `Nc1ncnc2c1ncn2CCOCP(=O)(O)O` [Adefovir], for which the “anti-HBV activity in vitro” value is “effective anti-HBV activity in vitro”.
